Laboratory results taken from ChEMBL document CHEMBL3045758, “Quantitative Structure-Activity Relationships of Fungicidal N-Phenylformamidoximes” (J Pestic Sci, 1992).

Experiments:
Phaseolus vulgaris = assay: Phytotoxicity against Phaseolus vulgaris (kidney bean) assessed as necrosis of leaf at 100 ppm after 7 days in greenhouse conditions; assay type: organism-based; settings: in vivo, 168 h
[1] = 1-octanol/water distribution coefficient, log P of the compound; assay type: physicochemical
Botrytis cinerea [2] = assay: Fungicidal activity against benzimidazole-resistant Botryotinia fuckeliana after 48 hr by poisoned food technique; assay type: functional, organism-based; settings: Botrytis cinerea, 48 h; read-out: pEC50 (converted)
Botrytis cinerea [3] = assay: Fungicidal activity against benzimidazole-resistant Botryotinia fuckeliana at 6.2 ppm after 48 hr by poisoned food technique; assay type: functional
Botrytis cinerea [4] = assay: Fungicidal activity against benzimidazole-resistant Botryotinia fuckeliana at 200 ppm after 48 hr by poisoned food technique; assay type: functional
Botrytis cinerea [5] = assay: Fungicidal activity against benzimidazole-resistant Botryotinia fuckeliana at 25 ppm after 48 hr by poisoned food technique; assay type: functional
Botrytis cinerea [6] = assay: Fungicidal activity against benzimidazole-resistant Botryotinia fuckeliana infected kidney bean leaf at 100 ppm after 7 days in greenhouse conditions by detached leaf test; assay type: functional

Structure (SMILES)	Activity (Phaseolus vulgaris)	logP [1]	EC50 (Botrytis cinerea [2])	Activity (Botrytis cinerea [3])	Activity (Botrytis cinerea [4])	Activity (Botrytis cinerea [5])	Activity (Botrytis cinerea [6])
C#CCc1c(Cl)cc(N/C=N/OC(C)C)cc1Cl	Non-toxic	3.9	33.1 nM	–	–	–	–
C#CCc1c(Cl)cc(N/C=N/OCC=C)cc1Cl	Non-toxic	3.7	67.6 nM	–	–	–	–
C#CCO/N=C/Nc1cc(Cl)c(CC#C)c(Cl)c1	Non-toxic	3.3	33.9 nM	–	–	–	–
C#CCc1c(Cl)cc(N/C=N/OCCCC)cc1Cl	Non-toxic	4.4	316 nM	–	–	–	–
C#CCc1c(Cl)cc(N/C=N/OC(C)CC)cc1Cl (stereo unspecified)	Non-toxic	4.2	158 nM	–	–	–	–
C#CCc1c(Cl)cc(N/C=N/OCC#N)cc1Cl	Non-toxic	3	33.9 nM	–	–	–	–
C#CCc1c(Cl)cc(N/C=N/OCOC)cc1Cl	Non-toxic	3.2	33.1 nM	–	–	–	–
C#CCc1c(Cl)cc(N/C=N/OCSC)cc1Cl	Non-toxic	3.6	31.6 nM	–	–	–	–
C#CCc1c(Cl)cc(N/C=N/OCOCC)cc1Cl	Non-toxic	3.5	63.1 nM	–	–	–	–
C#CCc1c(Cl)cc(N/C=N/OCC(=O)OCC)cc1Cl	Non-toxic	3.6	1450 nM	–	–	–	–
C#CCc1c(Cl)cc(N/C=N/OCCCl)cc1Cl	Non-toxic	3.7	30.9 nM	–	–	–	–
C#CCc1c(Cl)cc(N/C=N/OCCOCC)cc1Cl	Non-toxic	3.7	60.3 nM	–	–	–	–
C#CCc1c(Cl)cc(N/C=N/OC/C=C\Cl)cc1Cl	Non-toxic	3.9	60.3 nM	–	–	–	–
C#CCc1c(Cl)cc(N/C=N/OC/C=C/Cl)cc1Cl	Non-toxic	3.9	302 nM	–	–	–	–
C#CCc1c(Cl)cc(N/C=N/OCc2ccccc2)cc1Cl	Non-toxic	4.2	2880 nM	–	–	–	–
C#CCc1c(Cl)cc(N/C=N/Oc2ccccc2)cc1Cl	Non-toxic	4.4	295 nM	–	–	–	–
C#CCc1c(Cl)cc(N/C=N/Oc2ccc(C)cc2)cc1Cl	Non-toxic	4.8	851 nM	–	–	–	–
CCO/N=C/Nc1ccc(OCC)c(OCC)c1	Non-toxic	–	–	26%	100%	70%	50%
CCO/N=C/Nc1cc(Cl)c(OCC)c(Cl)c1OCC	Non-toxic	–	–	<25%	50%	<25%	<25%
CCO/N=C/Nc1cc(Cl)c(F)c(Cl)c1	<= 10%	4	794 nM	–	–	–	–
CCO/N=C/Nc1cc(Cl)c(CC)c(Cl)c1	Non-toxic	4.8	389 nM	–	–	–	–

Structure (SMILES)	Activity (Phaseolus vulgaris)	logP [1]	EC50 (Botrytis cinerea [2])	Activity (Botrytis cinerea [3])	Activity (Botrytis cinerea [4])	Activity (Botrytis cinerea [5])	Activity (Botrytis cinerea [6])
CCCCc1c(Cl)cc(N/C=N/OCC)cc1Cl	Non-toxic	5.6	1740 nM	–	–	–	–
CCO/N=C/Nc1cc(Cl)c(SCC)c(Cl)c1	Non-toxic	4.6	170 nM	–	–	–	–
CCO/N=C/Nc1cc(Cl)c(SSCC)c(Cl)c1	Non-toxic	5	617 nM	–	–	–	–
CCO/N=C/Nc1cc(Cl)c([S+]([O-])CC)c(Cl)c1 (stereo unspecified)	Non-toxic	2.9	162000 nM	–	–	–	–
CCO/N=C/Nc1cc(Cl)c(S(=O)(=O)CC)c(Cl)c1	<= 10%	2.8	30900 nM	–	–	–	–
CCO/N=C/Nc1cc(Cl)c(O)c(Cl)c1	Non-toxic	2.8	794 nM	–	–	–	–
CCO/N=C/Nc1cc(Cl)c(OC)c(Cl)c1	Non-toxic	3.7	191 nM	–	–	–	–
CCCOc1c(Cl)cc(N/C=N/OCC)cc1Cl	Non-toxic	4.6	174 nM	–	–	–	–
CCO/N=C/Nc1cc(Cl)c(OC(C)C)c(Cl)c1	<= 10%	4.4	6920 nM	–	–	–	–
C=CCOc1c(Cl)cc(N/C=N/OCC)cc1Cl	Non-toxic	4.3	34.7 nM	–	–	–	–
C#CCOc1c(Cl)cc(NC=NOCC)cc1Cl	Non-toxic	3.6	17.4 nM	–	–	–	–
CCO/N=C/Nc1cc(Cl)c(OCC(C)C)c(Cl)c1	<= 10%	5	16200 nM	–	–	–	–
CC#CCOc1c(Cl)cc(N/C=N/OCC)cc1Cl	Non-toxic	4	166 nM	–	–	–	–
CCO/N=C/Nc1cc(Cl)c(OCC#N)c(Cl)c1	Non-toxic	3.1	174 nM	–	–	–	–
CCO/N=C/Nc1cc(Cl)c(OCOC)c(Cl)c1	Non-toxic	3.7	174 nM	–	–	–	–
CCO/N=C/Nc1cc(Cl)c(OCCCl)c(Cl)c1	Non-toxic	4	32.4 nM	–	–	–	–
C#CCc1c(Cl)cc(N/C=N/O)cc1Cl	Non-toxic	2.8	77.6 nM	–	–	–	–
C#CCc1c(Cl)cc(N/C=N/OCCC)cc1Cl	Non-toxic	4	33.1 nM	–	–	–	–
CCO/N=C/Nc1ccccc1	Non-toxic	–	–	<25%	<25%	<25%	<25%
CCO/N=C/Nc1ccccc1Cl	<= 10%	–	–	<25%	100%	<25%	<25%
CCO/N=C/Nc1cccc(Cl)c1	<= 10%	–	–	<25%	50%	<25%	<25%

Structure (SMILES)	Activity (Phaseolus vulgaris)	logP [1]	EC50 (Botrytis cinerea [2])	Activity (Botrytis cinerea [3])	Activity (Botrytis cinerea [4])	Activity (Botrytis cinerea [5])	Activity (Botrytis cinerea [6])
CCO/N=C/Nc1ccc(Cl)cc1	Non-toxic	–	–	<25%	70%	<25%	<25%
CCO/N=C/Nc1ccccc1CC	Non-toxic	–	–	26%	100%	100%	<25%
CCO/N=C/Nc1cccc(CC)c1	Non-toxic	–	–	<25%	70%	<25%	<25%
CCO/N=C/Nc1ccc(CC)cc1	Non-toxic	–	–	<25%	26%	<25%	<25%
CCO/N=C/Nc1ccccc1OCC	Non-toxic	–	–	<25%	100%	100%	<25%
CCO/N=C/Nc1cccc(OCC)c1	Non-toxic	–	–	<25%	100%	26%	<25%
CCO/N=C/Nc1ccc(OCC)cc1	Non-toxic	–	–	<25%	50%	<25%	<25%
CCO/N=C/Nc1cccc(Cl)c1Cl	11%	–	–	<25%	100%	<25%	<25%
CCO/N=C/Nc1ccc(Cl)cc1Cl	<= 10%	–	–	<25%	100%	<25%	<25%
CCO/N=C/Nc1cc(Cl)ccc1Cl	Non-toxic	–	–	<25%	70%	<25%	<25%
CCO/N=C/Nc1c(Cl)cccc1Cl	> 31%	–	–	<25%	90%	<25%	<25%
CCO/N=C/Nc1ccc(Cl)c(Cl)c1	11%	–	–	<25%	70%	<25%	<25%
CCO/N=C/Nc1c(C)cccc1C	11%	–	–	<25%	<25%	<25%	<25%
CCO/N=C/Nc1cc(C)cc(C)c1	Non-toxic	–	–	<25%	90%	<25%	<25%
CCO/N=C/Nc1cc(OCC)ccc1OCC	Non-toxic	–	–	70%	100%	100%	<25%
CCO/N=C/Nc1c(Cl)c(Cl)cc(Cl)c1Cl [N'-ETHOXY-N-(2,3,5,6-TETRACHLOROPHENYL)FORMIMIDAMIDE]	Non-toxic	–	–	<25%	<25%	<25%	<25%
CCO/N=C/Nc1cc(Cl)c(Cl)cc1Cl [N'-ETHOXY-N-(2,4,5-TRICHLOROPHENYL)FORMIMIDAMIDE]	Non-toxic	–	–	<25%	26%	<25%	<25%
CCO/N=C/Nc1c(Cl)cc(Cl)cc1Cl [N'-ETHOXY-N-(2,4,6-TRICHLOROPHENYL)FORMIMIDAMIDE]	11%	–	–	<25%	100%	<25%	<25%
CCO/N=C/Nc1cc(C)cc(C)c1OCC [N'-ETHOXY-N-(2-ETHOXY-3,5-DIMETHYLPHENYL)FORMIMIDAMIDE]	Non-toxic	–	–	50%	100%	100%	<25%
